Tests used:
[1] = biological target: T1, Carbonic anhydrase 4 (Bos taurus, UniProt Q95323)
T1 sequence (Q95323 whole entry): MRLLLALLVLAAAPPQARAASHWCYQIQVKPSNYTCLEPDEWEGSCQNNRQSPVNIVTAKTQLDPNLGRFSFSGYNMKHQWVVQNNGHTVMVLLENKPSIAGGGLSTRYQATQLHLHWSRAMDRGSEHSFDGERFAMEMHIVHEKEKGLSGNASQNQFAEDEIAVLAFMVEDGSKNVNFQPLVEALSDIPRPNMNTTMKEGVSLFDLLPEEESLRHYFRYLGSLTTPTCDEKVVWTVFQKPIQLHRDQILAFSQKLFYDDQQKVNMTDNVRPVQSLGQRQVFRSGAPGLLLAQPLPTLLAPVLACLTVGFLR
Description: Compound was evaluated for binding affinity against bovine carbonic anhydrase IV (bCA IV)

[2] = biological target: Carbonic anhydrase 1 (Homo sapiens, UniProt P00915)
Description: Binding affinity against human carbonic anhydrase I (hCA I)

[3] = biological target: Carbonic anhydrase 2 (Homo sapiens, UniProt P00918)
Description: Binding affinity against human carbonic anhydrase II (hCA -II)

[4] = species on record: Oryctolagus cuniculus
Description: In vivo intraocular pressure (IOP) lowering at 120 min in normotensive rabbits after treatment with one drop (50 uL) 2% solution of CA inhibitor directly into the eye, at 7.0 pH

[5] = species on record: Oryctolagus cuniculus; remark: listed apart in the source
[6] = species on record: Oryctolagus cuniculus; remark: listed apart in the source
Description: Fall of in vivo intraocular pressure (IOP) of glaucomatous rabbits at 0 min after treatment with one drop (50 uL) solution of 2% of CA inhibitor directly into eye

[7] = species on record: Oryctolagus cuniculus; remark: listed apart in the source
Description: In vivo intraocular pressure (IOP) lowering at 90 min in normotensive rabbits after treatment with one drop (50 uL) 2% solution of CA inhibitor directly into the eye, at 7.0 pH

[8] = species on record: Oryctolagus cuniculus; remark: listed apart in the source
Description: Fall of in vivo intraocular pressure (IOP) of glaucomatous rabbits at 90 min after treatment with one drop (50 uL) solution of 2% of CA inhibitor directly into eye

[9] = species on record: Oryctolagus cuniculus; remark: listed apart in the source
Description: Fall of in vivo intraocular pressure (IOP) of glaucomatous rabbits at 30 min after treatment with one drop (50 uL) solution of 2% of CA inhibitor directly into eye

[10] = physchem; conditions: octanol/water
Description: Partition coefficient (logP)

[11] = species on record: Oryctolagus cuniculus; remark: listed apart in the source
Description: Fall of in vivo intraocular pressure (IOP) of glaucomatous rabbits at 120 min after treatment with one drop (50 uL) solution of 2% of CA inhibitor directly into eye

[12] = Compound was evaluated for in vitro corneal permeability in no epithelium; type: ADME, tissue-based, Cornea
[13] = species on record: Oryctolagus cuniculus; remark: listed apart in the source
Description: In vivo intraocular pressure (IOP) lowering at 30 min in normotensive rabbits after treatment with one drop (50 uL) 2% solution of CA inhibitor directly into the eye, at 7.0 pH

[14] = species on record: Oryctolagus cuniculus; remark: listed apart in the source
Description: Fall of in vivo intraocular pressure (IOP) of glaucomatous rabbits at 60 min after treatment with one drop (50 uL) solution of 2% of CA inhibitor directly into eye

[15] = Compound was evaluated for in vitro corneal permeability in cornea intact; type: ADME, tissue-based
[16] = test system: Oryctolagus cuniculus; test: In vivo intraocular pressure (IOP) lowering at 0 min in normotensive rabbits after treatment with one drop (50 uL) 2% solution of CA inhibitor directly into the eye, at 7.5 pH; type: functional
[17] = test system: Oryctolagus cuniculus; test: In vivo intraocular pressure (IOP) lowering at 60 min in normotensive rabbits after treatment with one drop (50 uL) 2% solution of CA inhibitor directly into the eye, at 7.0 pH; type: functional
[18] = test system: Oryctolagus cuniculus; test: In vivo intraocular pressure (IOP) lowering at 90 min in normotensive rabbits after treatment with one drop (50 uL) 2% solution of CA inhibitor directly into the eye, at 7.5 pH; type: functional
[19] = test system: Oryctolagus cuniculus; test: In vivo intraocular pressure (IOP) lowering at 60 min in normotensive rabbits after treatment with one drop (50 uL) 2% solution of CA inhibitor directly into the eye, at 7.5 pH; type: functional
[20] = test system: Oryctolagus cuniculus; test: In vivo intraocular pressure (IOP) lowering at 120 min in normotensive rabbits after treatment with one drop (50 uL) 2% solution of CA inhibitor directly into the eye, at 7.5 pH; type: functional
[21] = test system: Oryctolagus cuniculus; test: In vivo intraocular pressure (IOP) lowering at 30 min in normotensive rabbits after treatment with one drop (50 uL) 2% solution of CA inhibitor directly into the eye, at 7.5 pH; type: functional
[22] = test system: Oryctolagus cuniculus; test: In vivo intraocular pressure (IOP) lowering at 0 min in normotensive rabbits after treatment with one drop (50 uL) 2% solution of CA inhibitor directly into the eye, at 7.0 pH; type: functional
[23] = biological target: T1, Carbonic anhydrase 4; remark: listed apart in the source
Description: Compound was evaluated for binding affinity against bovine Carbonic anhydrase IV

Carbonic anhydrase 1, sequence (P00915 whole entry): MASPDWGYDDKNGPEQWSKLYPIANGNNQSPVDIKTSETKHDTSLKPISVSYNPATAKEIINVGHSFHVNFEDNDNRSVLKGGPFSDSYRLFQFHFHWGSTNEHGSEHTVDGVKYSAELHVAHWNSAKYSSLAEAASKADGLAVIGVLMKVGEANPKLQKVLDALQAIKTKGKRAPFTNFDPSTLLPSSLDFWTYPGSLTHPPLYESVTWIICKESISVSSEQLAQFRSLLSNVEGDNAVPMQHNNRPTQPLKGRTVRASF

NS(=O)(=O)c1cc(C(=O)N[C@@H](Cc2c[nH]cn2)C(=O)O)ccc1Cl
Ki [1]: 350 nM
Ki [2]: 103 nM
Ki [3]: 210 nM

NS(=O)(=O)c1ccc(C(=O)N[C@@H](Cc2c[nH]cn2)C(=O)N[C@@H](Cc2ccccc2)C(=O)O)cc1
Ki [1]: 23 nM
Delta IOP [4]: 9.5 mmHg
Delta IOP [5]: 6.5 mmHg
Ki [2]: 240 nM
Ki [3]: 9 nM
Delta IOP [6]: 0 mmHg
Delta IOP [7]: 9.1 mmHg
Delta IOP [8]: 11 mmHg
Delta IOP [9]: 7.1 mmHg
logP [10]: 1.74
Delta IOP [11]: 10 mmHg
Km x10e3 [12]: 5.8 hr-1
Delta IOP [13]: 4.2 mmHg
Delta IOP [14]: 12 mmHg
Km x10e3 [15]: 2.9 hr-1

C[C@@H](O)[C@H](NC(=O)c1ccc(S(N)(=O)=O)cc1)C(=O)O
Ki [1]: 350 nM
Ki [2]: 475 nM
Ki [3]: 115 nM

NS(=O)(=O)c1ccc(C(=O)Nc2nnc(S)s2)cc1
Ki [1]: 14 nM
Delta IOP [4]: 2.1 mmHg
Ki [2]: 38 nM
Ki [3]: 5 nM
Delta IOP [7]: 3.1 mmHg
Delta IOP [13]: 7 mmHg
Delta IOP [16]: 0 mmHg
Delta IOP [17]: 5 mmHg

NS(=O)(=O)c1nnc(NC(=O)c2ccc(Cl)c(S(N)(=O)=O)c2)s1
Ki [1]: 22 nM
Ki [2]: 13 nM
Delta IOP [18]: 8.3 mmHg
Ki [3]: 10 nM
Delta IOP [6]: 0 mmHg
Delta IOP [19]: 7.1 mmHg
Delta IOP [8]: 14.2 mmHg
Delta IOP [20]: 7.5 mmHg
Delta IOP [9]: 6.4 mmHg
logP [10]: 1.89
Delta IOP [11]: 13.3 mmHg
Km x10e3 [12]: 7 hr-1
Delta IOP [14]: 13 mmHg
Delta IOP [16]: 0 mmHg
Delta IOP [21]: 2.5 mmHg
Km x10e3 [15]: 3.1 hr-1

CC(C)C[C@H](NC(=O)c1ccc(S(N)(=O)=O)cc1)C(=O)NCC(=O)O
Delta IOP [22]: 0 mmHg
Ki [1]: 16 nM
Delta IOP [4]: 8.7 mmHg
Delta IOP [5]: 5.2 mmHg
Ki [2]: 400 nM
Ki [3]: 9 nM
Delta IOP [7]: 7.8 mmHg
logP [10]: 1.82
Km x10e3 [12]: 6.4 hr-1
Delta IOP [13]: 3.3 mmHg
Km x10e3 [15]: 3.3 hr-1

NS(=O)(=O)c1ccc(C(=O)NCC(=O)O)cc1
Ki [2]: 500 nM
Ki [23]: 200 nM
Ki [3]: 85 nM

NS(=O)(=O)c1ccc(C(=O)NCCC(=O)O)cc1
Ki [2]: 435 nM
Ki [23]: 190 nM
Ki [3]: 85 nM

NS(=O)(=O)c1ccc(CCNC(=O)c2ccc(S(N)(=O)=O)cc2)cc1
Ki [1]: 13 nM
logP [10]: 1.43
Km x10e3 [12]: 6.3 hr-1
Km x10e3 [15]: 2.5 hr-1

NS(=O)(=O)c1cc(C(=O)N[C@@H](Cc2ccc(O)cc2)C(=O)O)ccc1Cl
Ki [1]: 325 nM
Ki [2]: 115 nM
Ki [3]: 250 nM

CCC(C)[C@H](NC(=O)c1ccc(S(N)(=O)=O)cc1)C(=O)O (single isomer, unassigned)
Ki [1]: 86 nM
Ki [2]: 350 nM
Ki [3]: 48 nM

Reference: ChEMBL document CHEMBL1134130, “Carbonic anhydrase inhibitors: 4-sulfamoyl-benzenecarboxamides and 4-chloro-3-sulfamoyl-benzenecarboxamides with strong topical antiglaucoma properties” (Bioorg Med Chem Lett, 2001)
